Assay results taken from patent publication US20250019352A1, “PHARMACOLOGICAL AGENTS FOR TREATING OPHTHALMIC DISEASES” (Plex Pharmaceuticals, Inc., priority 2021, published 2025).
pEC50: −log10 of the molar value.

Columns and labels:
[1] = molecular target: T1, recombinant human hAAC (human αA-crystallin) (Homo sapiens, UniProt P02489); test: Protection from Ca+2 and UVC induced aggregation of recombinant human alpha-A crystallin (absorbance / SDS-PAGE); format: biochemical; details: for Gel: SDS-PAGE, unaggregated AAC after UVC, compounds tested at 500 μM; for pEC50: concentration needed to prevent 50% of hAAC from forming HMW aggregates when exposed to UVC in presence of Ca+2, calculated using SDS-PAGE, read-out: EC50 Biochemical
T1 sequence (P02489 1-173): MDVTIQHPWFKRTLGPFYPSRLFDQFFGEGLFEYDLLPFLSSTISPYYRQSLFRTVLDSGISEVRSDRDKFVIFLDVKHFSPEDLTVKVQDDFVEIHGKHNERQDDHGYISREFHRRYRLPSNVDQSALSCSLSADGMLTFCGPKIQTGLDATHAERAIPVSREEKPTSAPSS
Description: FIG. 2A: SDS-PAGE showing the protection against UVC induced aggregation of human α-A-crystallin (hAAC) by disulfide and related SDMs. Shown are also efficacy of non-related SDMs. The compounds were tested at 500 μM concentration.
The potency of compounds to provide protection from Ca^+2 and UVC induced aggregation of alpha-A crystalline (ACC) was measured by monitoring the effect of Ca^+2 and UVC on recombinant human hAAC. hAAC forms HMW aggregates when exposed to UVC radiation in the presence of 10 mM Ca^+2. The aggregates lead to increased absorbance. Stock compound solutions (made in DMSO) were added to recombinant hAAC (100 ug/ml) at desired concentrations. The hAAC, with the added compound, was incubated at room temperature for 1 hour, followed by addition of 10 μl of 200 mM CaCl2) and further incubation for 5 minutes. Then, absorbance was recorded at 400 nm (T=0 Minute) followed by exposure to UVC (254 nm, 480 mJ/cm^2 per minute). Absorbance was measured again at 15 and 30 minutes. To control for compound related effects, assays were performed with or without AAC in triplicate. Percent protection or change in fold-decrease in aggregation were computed using the measured differences in absorbance. DMSO was used as control. EC50 values were calculated using the SDS-PAGE, which is defined as the concentration of SMD needed to prevent 50% of hAAC from forming HMW aggregates when exposed to UVC in presence of Ca^+2 [FIGS. 2A-2B].

porcine lenses = test: Ex vivo lens culture: protection from UV-induced opacification; details: porcine lenses cultured ex vivo
Excerpt: To predict whether SMDs could prevent opacification in animal models and ultimately in human patients, we assessed their ability to protect intact lenses cultured ex vivo from UV-induced opacification. As fresh human lenses are difficult to obtain, porcine lenses were used for the ex vivo studies. Porcine lenses are easy to acquire (Sierra for Medical Science, Inc., Whittier, CA) and have been used previously in ex vivo models of Presbyopia. As predicted by our biochemical assays, SMDs prevents UV-induced opacification of porcine lenses ex vivo.

pEC50 [1]	SMILES	Gel [1]	Ex-vivo (porcine lenses)
	O=C(O)c1ccc(SSc2ccc(C(=O)O)cc2)cc1 [Compound 1]	++ (″++″ score = >50% unaggregated AAC)	
	Nc1ccc(SSc2ccc(N)cc2)cc1 [Compound 2]	++ (″++″ score = >50% unaggregated AAC)	
3.40	O=C(O)c1ccccc1SSc1ccccc1C(=O)O [Compound 4]	++ (″++″ score = >50% unaggregated AAC)	
	Nc1cccc(SSc2cccc(N)c2)c1 [Compound 5]	++ (″++″ score = >50% unaggregated AAC)	
	Fc1ccccc1SSc1ccccc1F [Compound 7]	+ (″+″ score = >20% to 50% unaggregated AAC)	
3.31	CN/C(=C\[N+](=O)[O-])NCCSCc1c[nH]c(CN(C)C)n1 [Compound 11]	++ (″++″ score = >50% unaggregated AAC)	++ (″++″ score = >50% unaggregated AAC)
	O=[N+]([O-])c1cc(C(F)(F)F)ccc1SSc1ccc(C(F)(F)F)cc1[N+](=O)[O-] [Compound 14]	+ (″+″ score = >20% to 50% unaggregated AAC)	
	COc1ccc(SSc2ccc(OC)cc2)cc1 [Compound 15]	+ (″+″ score = >20% to 50% unaggregated AAC)	
	CC(=O)Nc1ccc(SSc2ccc(NC(C)=O)cc2)cc1 [Compound 16]	+ (″+″ score = >20% to 50% unaggregated AAC)	
	O=[N+]([O-])c1cc(S(=O)(=O)C(F)(F)C(F)(F)F)ccc1SSc1ccc(S(=O)(=O)C(F)(F)C(F)(F)F)cc1[N+](=O)[O-] [Compound 18]	+ (″+″ score = >20% to 50% unaggregated AAC)	
	COC(=O)c1ccccc1SSc1ccccc1C(=O)OC [Compound 21]	+ (″+″ score = >20% to 50% unaggregated AAC)	
	CCCNS(=O)(=O)c1cccc(C(C)=O)c1 [Compound 22]	+ (″+″ score = >20% to 50% unaggregated AAC)	
	O=C(O)CCNS(=O)(=O)c1ccc(F)cc1 [Compound 23]	+ (″+″ score = >20% to 50% unaggregated AAC)	
	CC(C)NS(=O)(=O)c1cccc(C(=O)O)c1 [Compound 24]	+ (″+″ score = >20% to 50% unaggregated AAC)	++ (″++″ score = >50% unaggregated AAC)
	O=C(O)c1cccc(S(=O)(=O)NC2CC2)c1 [Compound 25]	+ (″+″ score = >20% to 50% unaggregated AAC)	++ (″++″ score = >50% unaggregated AAC)
	O=C(O)c1cc(S(=O)(=O)N2CCCC2)ccc1O [Compound 26]	++ (″++″ score = >50% unaggregated AAC)	
	O=C(O)c1ccc(S(=O)(=O)N2CCCCC2)cc1 [Compound 27]	+ (″+″ score = >20% to 50% unaggregated AAC)	
	O=C(O)c1cccc(S(=O)(=O)N2CCCCC2)c1 [Compound 28]	+ (″+″ score = >20% to 50% unaggregated AAC)	
	O=C(O)c1cccc(S(=O)(=O)N2CCOCC2)c1 [Compound 29]	+ (″+″ score = >20% to 50% unaggregated AAC)	
	O=C(O)Cc1ccc(S(=O)(=O)N2CCOCC2)s1 [Compound 30]	++ (″++″ score = >50% unaggregated AAC)	

pEC50 [1]	SMILES	Gel [1]	Ex-vivo (porcine lenses)
	CNC(C[N+](=O)[O-])NCCSCc1ccc(CN(C)C)o1.Cl (centres unmarked) [Compound 31]	+ (″+″ score = >20% to 50% unaggregated AAC)	
3.39	CN=C(NC#N)NCCSCc1csc(N=C(C)C)n1 [Compound 32]	++ (″++″ score = >50% unaggregated AAC)	
	Cc1cc(N2CCSSCC2)ncc1[N+](=O)[O-] [Compound 34]	++ (″++″ score = >50% unaggregated AAC)	
	Cc1ccnc(N2CCSSCC2)c1[N+](=O)[O-] [Compound 35]	++ (″++″ score = >50% unaggregated AAC)	
	Nc1nc(N2CCSSCC2)ncc1[N+](=O)[O-] [Compound 36]	+ (″+″ score = >20% to 50% unaggregated AAC)	
3.43	O=C1NC(=O)c2cc(NC(=O)N3CCSSCC3)ccc21 [Compound 37]	++ (″++″ score = >50% unaggregated AAC)	
	Cc1nn(CCC(=O)N2CCSSCC2)c(C)c1[N+](=O)[O-] [Compound 38]	+ (″+″ score = >20% to 50% unaggregated AAC)	
3.44	O=C(CSSCC(=O)Nc1cccc([N+](=O)[O-])c1)Nc1cccc([N+](=O)[O-])c1 [Compound 40]	+ (″+″ score = >20% to 50% unaggregated AAC)	
	Cc1ccc(NC(=O)C(C)SSC(C)C(=O)Nc2ccc(C)c(F)c2)cc1F (centres unmarked) [Compound 41]	+ (″+″ score = >20% to 50% unaggregated AAC)	
	O=C(O)c1nsnc1NCCSSCCNc1nsnc1C(=O)O [Compound 42]	+ (″+″ score = >20% to 50% unaggregated AAC)	
	O=C(O)CCC(=O)Nc1ccc(SSc2ccc(NC(=O)CCC(=O)O)cc2)cc1 [Compound 43]	++ (″++″ score = >50% unaggregated AAC)	
	O=C(CSSCC(=O)Nc1ccc2ccccc2c1)Nc1ccc2ccccc2c1 [Compound 44]	++ (″++″ score = >50% unaggregated AAC)	
	O=C(NCCOc1ccccc1)SSC(=O)NCCOc1ccccc1 [Compound 45]	+ (″+″ score = >20% to 50% unaggregated AAC)	
	Cc1ncc(CSSCc2cnc(C)c(O)c2CO)c(CO)c1O [Compound 46]	+ (″+″ score = >20% to 50% unaggregated AAC)	
	O=C(CSSCC(=O)Nc1cccc2ccccc12)Nc1cccc2ccccc12 [Compound 48]	+ (″+″ score = >20% to 50% unaggregated AAC)	
	N#Cc1cc(C(=O)O)c(O)nc1SSc1nc(O)c(C(=O)O)cc1C#N [Compound 50]	+ (″+″ score = >20% to 50% unaggregated AAC)	
	CC(C)Cc1ccccc1NC(=O)CSSCC(=O)Nc1ccccc1CC(C)C [Compound 51]	++ (″++″ score = >50% unaggregated AAC)	
	CCC1c2ccccc2-c2cc(NC(=O)CSSCC(=O)Nc3ccc4c(c3)c3ccccc3n4CC)ccc21 (centres unmarked) [Compound 54]	++ (″++″ score = >50% unaggregated AAC)	
	COc1ccccc1NC(=O)CSSCC(=O)Nc1ccccc1OC [Compound 55]	++ (″++″ score = >50% unaggregated AAC)	

SMILES	pEC50 [1]	Gel [1]	Ex-vivo (porcine lenses)
O=C(O)c1cc(SSc2ccc([N+](=O)[O-])c(C(=O)O)c2)ccc1[N+](=O)[O-] [Compound 13]	3.72	++ (″++″ score = >50% unaggregated AAC)	++ (″++″ score = >50% unaggregated AAC)
